ChEMBL document CHEMBL1165900, “A computational study of the binding of 3-(arylidene) anabaseines to two major brain nicotinic acetylcholine receptors and to the acetylcholine binding protein” (Eur J Med Chem, 2010)

What was measured:
[1] = target: Neuronal acetylcholine receptor subunit alpha-7 (Rattus norvegicus, UniProt Q05941); type: cell membranes, Brain, Membrane
Description: (§2) Displacement of [125I]-alpha-bungarotoxin from alpha7 nAChR in rat brain membrane after 3 hrs

[2] = target: Neuronal acetylcholine receptor; alpha4/beta2 (Rattus norvegicus) (UniProt P09483+P12390); test: (§1) Displacement of [3H]cytisine from alpha4beta2 nAChR in rat brain membrane after 3 hrs; type: cell membranes
[3] = target: Neuronal acetylcholine receptor; alpha4/beta2 (Rattus norvegicus, UniProt P09483+P12390); test: as §1; type: cell membranes
Sequence of Neuronal acetylcholine receptor; alpha4/beta2 (P09483 whole entry): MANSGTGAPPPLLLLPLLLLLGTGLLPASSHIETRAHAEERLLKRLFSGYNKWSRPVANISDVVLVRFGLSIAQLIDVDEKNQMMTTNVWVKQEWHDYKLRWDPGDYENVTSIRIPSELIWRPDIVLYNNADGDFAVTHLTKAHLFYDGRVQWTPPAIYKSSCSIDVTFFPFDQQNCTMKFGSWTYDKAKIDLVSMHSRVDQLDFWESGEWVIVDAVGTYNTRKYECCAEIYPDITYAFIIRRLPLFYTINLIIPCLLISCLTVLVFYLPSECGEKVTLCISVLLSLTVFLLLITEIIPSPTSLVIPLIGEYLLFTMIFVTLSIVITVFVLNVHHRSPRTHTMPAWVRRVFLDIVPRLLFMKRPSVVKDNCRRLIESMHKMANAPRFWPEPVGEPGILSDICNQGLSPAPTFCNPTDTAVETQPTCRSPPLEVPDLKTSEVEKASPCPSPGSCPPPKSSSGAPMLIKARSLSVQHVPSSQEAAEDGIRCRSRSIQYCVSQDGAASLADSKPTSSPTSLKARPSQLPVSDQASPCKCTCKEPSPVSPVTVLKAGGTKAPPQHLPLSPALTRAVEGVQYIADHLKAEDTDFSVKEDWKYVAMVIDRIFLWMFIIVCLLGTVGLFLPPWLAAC
Sequence of Neuronal acetylcholine receptor; alpha4/beta2 (P12390 whole entry): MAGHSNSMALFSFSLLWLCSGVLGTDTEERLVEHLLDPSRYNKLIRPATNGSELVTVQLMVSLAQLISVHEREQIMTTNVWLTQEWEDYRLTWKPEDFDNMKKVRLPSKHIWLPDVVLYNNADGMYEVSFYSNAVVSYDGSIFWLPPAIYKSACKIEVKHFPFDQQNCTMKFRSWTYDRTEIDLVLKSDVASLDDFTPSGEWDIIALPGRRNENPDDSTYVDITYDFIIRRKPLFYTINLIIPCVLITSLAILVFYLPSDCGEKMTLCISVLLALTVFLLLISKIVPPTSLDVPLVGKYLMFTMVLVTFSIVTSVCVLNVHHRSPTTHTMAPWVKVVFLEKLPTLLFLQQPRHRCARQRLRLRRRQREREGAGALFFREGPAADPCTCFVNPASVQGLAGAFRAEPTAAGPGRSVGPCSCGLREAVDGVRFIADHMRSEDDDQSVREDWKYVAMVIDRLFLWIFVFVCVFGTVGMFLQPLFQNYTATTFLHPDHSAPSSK

[4] = target: Neuronal acetylcholine receptor subunit alpha-7 (Rattus norvegicus) (UniProt Q05941); conditions: Brain, Membrane
Sequence of Neuronal acetylcholine receptor subunit alpha-7 (Rattus norvegicus) (Q05941 whole entry): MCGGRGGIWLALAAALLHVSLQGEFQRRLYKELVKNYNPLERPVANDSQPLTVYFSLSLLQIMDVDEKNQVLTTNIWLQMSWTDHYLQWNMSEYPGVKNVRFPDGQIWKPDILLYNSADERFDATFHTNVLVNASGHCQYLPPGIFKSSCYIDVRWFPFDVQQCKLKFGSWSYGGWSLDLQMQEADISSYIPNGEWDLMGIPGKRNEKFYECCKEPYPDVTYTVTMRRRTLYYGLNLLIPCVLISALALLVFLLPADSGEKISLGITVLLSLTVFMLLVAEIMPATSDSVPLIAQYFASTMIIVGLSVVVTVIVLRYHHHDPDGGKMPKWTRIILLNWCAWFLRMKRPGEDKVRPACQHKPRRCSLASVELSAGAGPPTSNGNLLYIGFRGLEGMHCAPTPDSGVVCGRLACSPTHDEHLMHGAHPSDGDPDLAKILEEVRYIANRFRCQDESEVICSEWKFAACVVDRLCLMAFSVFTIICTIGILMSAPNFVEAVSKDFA
Description: as §2

Sequence of Neuronal acetylcholine receptor subunit alpha-7 (Q05941 whole entry): as above

COc1cc(/C=C2\CCCN=C2c2cccnc2)cc(OC)c1OC
Ki [1]: 3480 nM
Ki [2]: 669 nM
Ki [3]: 4670 nM
Ki [4]: 542 nM

COc1ccc(/C=C2\CCCN=C2c2cccnc2)cc1
Ki [1]: 570 nM
Ki [2]: 310 nM
Ki [3]: 490 nM
Ki [4]: 244 nM

CCCc1ccc(/C=C2\CCCN=C2c2cccnc2)cc1
Ki [1]: 280 nM
Ki [2]: 51 nM
Ki [3]: 890 nM
Ki [4]: 553 nM

COc1ccc(/C=C2\CCCN=C2c2cccnc2)c(O)c1
Ki [1]: 320 nM
Ki [2]: 409 nM
Ki [3]: 390 nM
Ki [4]: 495 nM

CC(C)(C)Oc1ccc(/C=C2\CCCN=C2c2cccnc2)cc1
Ki [1]: 2230 nM
Ki [2]: 336 nM
Ki [3]: 2170 nM
Ki [4]: 348 nM

Nc1ccc(/C=C2\CCCN=C2c2cccnc2)cc1
Ki [1]: 50 nM
Ki [2]: 921 nM
Ki [3]: 120 nM
Ki [4]: 1300 nM

COc1ccc2cc(/C=C3\CCCN=C3c3cccnc3)ccc2c1
Ki [2]: 222 nM
Ki [4]: 432 nM

Cc1ccc(/C=C2\CCCN=C2c2cccnc2)cc1
Ki [1]: 436 nM
Ki [2]: 4 nM
Ki [3]: 990 nM
Ki [4]: 361 nM

FC(F)Oc1ccc(/C=C2\CCCN=C2c2cccnc2)cc1
Ki [1]: 1010 nM
Ki [2]: 64 nM
Ki [3]: 1160 nM
Ki [4]: 4 nM

CC(=O)Oc1ccc(/C=C2\CCCN=C2c2cccnc2)cc1
Ki [1]: 170 nM
Ki [2]: 602 nM
Ki [3]: 250 nM
Ki [4]: 770 nM

Cc1cc(C)c(/C=C2\CCCN=C2c2cccnc2)c(C)c1
Ki [1]: 1510 nM
Ki [2]: 284 nM
Ki [3]: 520 nM
Ki [4]: 179 nM

FC(F)(F)Oc1ccc(/C=C2\CCCN=C2c2cccnc2)cc1
Ki [3]: 930 nM

COc1ccc(/C=C2\CCCN=C2c2cccnc2)c(OC)c1 [GTS-21]
Ki [1]: 130 nM
Ki [2]: 602 nM
Ki [3]: 250 nM
Ki [4]: 886 nM

FC(F)(F)Oc1ccccc1/C=C1\CCCN=C1c1cccnc1
Ki [2]: 246 nM
Ki [3]: 1760 nM

Oc1ccc(/C=C2\CCCN=C2c2cccnc2)cc1
Ki [1]: 360 nM
Ki [2]: 347 nM
Ki [3]: 450 nM
Ki [4]: 444 nM

CCN(CC)c1ccc(/C=C2\CCCN=C2c2cccnc2)c(O)c1
Ki [1]: 50 nM
Ki [2]: 886 nM
Ki [3]: 130 nM
Ki [4]: 1300 nM

CC(=O)c1ccc(/C=C2\CCCN=C2c2cccnc2)cc1
Ki [3]: 4490 nM

Clc1ccc(/C=C2\CCCN=C2c2cccnc2)cc1
Ki [1]: 1120 nM
Ki [2]: 13 nM
Ki [3]: 970 nM
Ki [4]: 49 nM

CC(=O)Oc1ccccc1/C=C1\CCCN=C1c1cccnc1
Ki [1]: 570 nM
Ki [2]: 155 nM
Ki [3]: 700 nM
Ki [4]: 244 nM

CN(C)c1ccc(/C=C2\CCCN=C2c2cccnc2)cc1
Ki [1]: 80 nM
Ki [2]: 770 nM
Ki [3]: 170 nM
Ki [4]: 1100 nM

CSc1ccc(/C=C2\CCCN=C2c2cccnc2)cc1
Ki [1]: 250 nM
Ki [2]: 46 nM
Ki [3]: 900 nM
Ki [4]: 602 nM

Cc1cc(/C=C2\CCCN=C2c2cccnc2)cc(C)c1O
Ki [1]: 530 nM
Ki [2]: 444 nM
Ki [3]: 360 nM
Ki [4]: 276 nM

OCCN(CCO)c1ccc(/C=C2\CCCN=C2c2cccnc2)cc1
Ki [1]: 190 nM
Ki [2]: 796 nM
Ki [3]: 160 nM
Ki [4]: 721 nM

CNc1ccc(/C=C2\CCCN=C2c2cccnc2)cc1
Ki [1]: 50 nM
Ki [2]: 1300 nM
Ki [3]: 50 nM
Ki [4]: 1300 nM

CC(=O)Nc1ccc(/C=C2\CCCN=C2c2cccnc2)cc1
Ki [1]: 240 nM
Ki [2]: 420 nM
Ki [3]: 380 nM
Ki [4]: 620 nM

Cc1cc(O)cc(C)c1/C=C1\CCCN=C1c1cccnc1
Ki [1]: 5490 nM
Ki [2]: 174 nM
Ki [3]: 670 nM
Ki [4]: 740 nM

C(=C1/CCCN=C1c1cccnc1)/c1ccc(-n2ccnn2)cc1
Ki [2]: 284 nM
Ki [4]: 72 nM

Oc1ccc(/C=C2\CCCN=C2c2cccnc2)c(O)c1
Ki [1]: 200 nM
Ki [2]: 678 nM
Ki [3]: 210 nM
Ki [4]: 699 nM

C(=C1/CCCN=C1c1cccnc1)/c1cc2ccccc2o1
Ki [2]: 772 nM
Ki [4]: 823 nM

N#Cc1ccc(/C=C2\CCCN=C2c2cccnc2)cc1
Ki [1]: 2300 nM
Ki [2]: 90 nM
Ki [3]: 1230 nM
Ki [4]: 362 nM

CCCCOc1ccc(/C=C2\CCCN=C2c2cccnc2)cc1
Ki [3]: 1960 nM

FC(F)Oc1ccccc1/C=C1\CCCN=C1c1cccnc1
Ki [3]: 1410 nM

COc1ccc(/C=C2\CCCN=C2c2cccnc2)c(OC(C)C)c1
Ki [1]: 70 nM
Ki [2]: 770 nM
Ki [3]: 170 nM
Ki [4]: 1160 nM

C(=C1/CCCN=C1c1cccnc1)/c1ccc2c(c1)OCCO2
Ki [2]: 284 nM
Ki [4]: 699 nM

CCC(CC)Oc1cc(OC)ccc1/C=C1\CCCN=C1c1cccnc1
Ki [1]: 50 nM
Ki [2]: 367 nM
Ki [3]: 430 nM
Ki [4]: 1300 nM

C(=C1/CCCN=C1c1cccnc1)/c1ccccc1 [3-BENZYLIDENEANABASEINE]
Ki [1]: 600 nM
Ki [2]: 71 nM
Ki [3]: 850 nM
Ki [4]: 222 nM

COc1ccc(/C=C2\CCCN=C2c2cccnc2)c(OC(C)=O)c1
Ki [1]: 300 nM
Ki [2]: 114 nM
Ki [3]: 770 nM
Ki [4]: 523 nM

COc1cc(OC)c(/C=C2\CCCN=C2c2cccnc2)c(OC)c1
Ki [1]: 180 nM
Ki [2]: 1220 nM
Ki [3]: 60 nM
Ki [4]: 745 nM

CC(C)(C)C(=O)Oc1ccc(/C=C2\CCCN=C2c2cccnc2)cc1
Ki [1]: 690 nM
Ki [2]: 81 nM
Ki [3]: 830 nM
Ki [4]: 161 nM

C(=C1/CCCN=C1c1cccnc1)/c1ccc(N2CCOCC2)cc1
Ki [1]: 300 nM
Ki [2]: 553 nM
Ki [3]: 280 nM
Ki [4]: 523 nM

CC(C)(C)C(=O)Oc1ccccc1/C=C1\CCCN=C1c1cccnc1
Ki [1]: 650 nM
Ki [2]: 158 nM
Ki [3]: 1440 nM
Ki [4]: 187 nM

C(=C1/CCCN=C1c1cccnc1)/c1ccc2c(c1)OCO2
Ki [2]: 155 nM
Ki [4]: 638 nM

COc1cccc(/C=C2\CCCN=C2c2cccnc2)c1
Ki [1]: 460 nM
Ki [2]: 72 nM
Ki [3]: 1180 nM
Ki [4]: 337 nM

Oc1cccc(/C=C2\CCCN=C2c2cccnc2)c1
Ki [1]: 150 nM
Ki [2]: 68 nM
Ki [3]: 1170 nM
Ki [4]: 824 nM
